Assays:
[1] = tested on: T47D (PI3Kα H1047R mutant) cells; experiment: CellTiter-Glo 2.0 luminescent cell viability assay, 72 hours, T47D cells; assay type: cell-based; conditions: Homo sapiens, T47D, 72 h, T47D (PI3Kα H1047R mutant) cells, CellTiter-Glo, approximately 72 hours; read-out: T47D (H1047R mutant) Viability IC50
Procedure, shortened: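 Cells seeded at 1000 per well overnight were dosed with a 10-concentration, 1:4 series starting at 10 µM and incubated ~72 h at 37° C. Viability was read by CellTiter-Glo 2.0 luminescence after 30 min at room temperature. IC50 came from four-parameter fits of percent vehicle control.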

[2] = tested on: SKBR3 (PI3Kα wild type) cells; experiment: CellTiter-Glo 2.0 luminescent cell viability assay, 72 hours, SKBR3 cells; assay type: cell-based; conditions: Homo sapiens, SK-BR-3, 72 h, SKBR3 (PI3Kα wild type) cells, CellTiter-Glo, approximately 72 hours; read-out: SKBR3 (WT) Viability IC50
Procedure, shortened: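 Viability measured via CTG luminescence following roughly 72 hours of compound exposure at 37° C. Dosing used a 10 um starting concentration diluted 1:4 over 10 points; percent-of-vehicle data fitted with a variable-slope four-parameter model for IC50.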

Row | SMILES | IC50 [1] | IC50 [2]
1 | Cc1cc([C@@H](C)Nc2ccccc2C(=O)O)c2nc(N3C[C@H](C)C(F)(F)C3)c(C)c(=O)n2c1 [Example 11-119, 2-(((R)-1-(2-((S)-3,3-difluoro-4-methylpyrrolidin-1-yl)-3,7-dimethyl-4-oxo-4H-pyrido[1,2-a]pyrimidin-9-yl)ethyl)amino)benzoic acid] | 132 nM | > 10000 nM
2 | Cc1cc([C@@H](C)Nc2ccccc2C(=O)O)c2nc(N3C[C@@H](C)C(F)(F)C3)c(C)c(=O)n2c1 [Example 11-120, 2-(((R)-1-(2-((R)-3,3-difluoro-4-methylpyrrolidin-1-yl)-3,7-dimethyl-4-oxo-4H-pyrido[1,2-a]pyrimidin-9-yl)ethyl)amino)benzoic acid] | 168 nM | > 10000 nM
3 | Cc1cc([C@@H](C)Nc2ccccc2C(=O)O)c2nc(N3CC(C)C(F)(F)C3)c(C)c(=O)n2c1 (stereo partly drawn) [Example 11-121, 2-(((1R)-1-(2-(3,3-difluoro-4-methylpyrrolidin-1-yl)-3,7-dimethyl-4-oxo-4H-pyrido[1,2-a]pyrimidin-9-yl)ethyl)amino)benzoic acid] | 60 nM | 5220 nM
4 | Cc1cc([C@@H](C)Nc2ccccc2C(=O)O)c2nc(N3CCC(F)(F)[C@@H]3C)c(C)c(=O)n2c1 [Example 11-122, 2-(((R)-1-(2-((S)-3,3-difluoro-2-methylpyrrolidin-1-yl)-3,7-dimethyl-4-oxo-4H-pyrido[1,2-a]pyrimidin-9-yl)ethyl)amino)benzoic acid] | 320 nM | > 10000 nM
5 | Cc1cc([C@@H](C)Nc2ccccc2C(=O)O)c2nc(N3CCC(F)(F)[C@H]3C)c(C)c(=O)n2c1 [Example 11-123, 2-(((R)-1-(2-((R)-3,3-difluoro-2-methylpyrrolidin-1-yl)-3,7-dimethyl-4-oxo-4H-pyrido[1,2-a]pyrimidin-9-yl)ethyl)amino)benzoic acid] | 285 nM | > 10000 nM
6 | Cc1cc([C@@H](C)Nc2ccccc2C(=O)O)c2nc(N3CC(F)(F)C[C@H]3C)c(C)c(=O)n2c1 [Example 11-125, 2-(((R)-1-(2-((R)-4,4-difluoro-2-methylpyrrolidin-1-yl)-3,7-dimethyl-4-oxo-4H-pyrido[1,2-a]pyrimidin-9-yl)ethyl)amino)benzoic acid] | 531 nM | > 10000 nM
7 | Cc1cc([C@@H](C)Nc2ccccc2C(=O)O)c2nc(N3CC(F)(F)C[C@@H]3C)c(C)c(=O)n2c1 [Example 11-126, 2-(((R)-1-(2-((S)-4,4-difluoro-2-methylpyrrolidin-1-yl)-3,7-dimethyl-4-oxo-4H-pyrido[1,2-a]pyrimidin-9-yl)ethyl)amino)benzoic acid] | 347 nM | > 10000 nM
8 | Cc1cc([C@@H](C)Nc2ccccc2C(=O)O)c2nc(N3CC4CC3C4)c(C)c(=O)n2c1 [Example 11-127, (R)-2-((1-(2-(2-azabicyclo[2.1.1]hexan-2-yl)-3,7-dimethyl-4-oxo-4H-pyrido[1,2-a]pyrimidin-9-yl)ethyl)amino)benzoic acid] | 323 nM | > 10000 nM
9 | Cc1cc([C@@H](C)Nc2ccc(Cl)nc2C(=O)O)c2nc(N3CCN(c4ccc(C#N)cc4)C[C@H]3C)c(C#N)c(=O)n2c1 [Example 11-128, 6-chloro-3-(((R)-1-(3-cyano-2-((R)-4-(4-cyanophenyl)-2-methylpiperazin-1-yl)-7-methyl-4-oxo-4H-pyrido[1,2-a]pyrimidin-9-yl)ethyl)amino)picolinic acid] | 275 nM | > 10000 nM
10 | Cc1cc([C@@H](C)Nc2ccc(Cl)nc2C(=O)O)c2nc(N3CCN(c4ccc(C#N)cc4)C[C@@H]3C)c(C#N)c(=O)n2c1 [Example 11-129, 6-chloro-3-(((R)-1-(3-cyano-2-((S)-4-(4-cyanophenyl)-2-methylpiperazin-1-yl)-7-methyl-4-oxo-4H-pyrido[1,2-a]pyrimidin-9-yl)ethyl)amino)picolinic acid] | 960 nM | > 10000 nM
11 | Cc1cc([C@@H](C)Nc2ccc(Cl)nc2C(=O)O)c2nc(N3CCN(c4ccc(F)cc4)C[C@H]3C)c(C#N)c(=O)n2c1 [Example 11-131, 6-chloro-3-(((R)-1-(3-cyano-2-((R)-4-(4-fluorophenyl)-2-methylpiperazin-1-yl)-7-methyl-4-oxo-4H-pyrido[1,2-a]pyrimidin-9-yl)ethyl)amino)picolinic acid] | 310 nM | > 10000 nM
12 | Cc1cc([C@@H](C)Nc2ccc(Cl)nc2C(=O)O)c2nc(N3CCN(c4ccc(C#N)cc4C)CC3)c(C#N)c(=O)n2c1 [Example 11-132, (R)-6-chloro-3-((1-(3-cyano-2-(4-(4-cyano-2-methylphenyl)piperazin-1-yl)-7-methyl-4-oxo-4H-pyrido[1,2-a]pyrimidin-9-yl)ethyl)amino)picolinic acid] | 172 nM | > 10000 nM
13 | Cc1cc([C@@H](C)Nc2ccc(Cl)nc2C(=O)O)c2nc(N3CCN(c4ccc(C#N)cc4C)CC3)c(C)c(=O)n2c1 [Example 11-133, (R)-6-chloro-3-((1-(2-(4-(4-cyano-2-methylphenyl)piperazin-1-yl)-3,7-dimethyl-4-oxo-4H-pyrido[1,2-a]pyrimidin-9-yl)ethyl)amino)picolinic acid] | 174 nM | 10000 nM
14 | Cc1cc([C@@H](C)Nc2ccccc2C(=O)O)c2nc(N3CC4CC(C3)N4c3ccc(C#N)cc3)c(C#N)c(=O)n2c1 [Example 11-134, 2-(((1R)-1-(3-cyano-2-(6-(4-cyanophenyl)-3,6-diazabicyclo[3.1.1]heptan-3-yl)-7-methyl-4-oxo-4H-pyrido[1,2-a]pyrimidin-9-yl)ethyl)amino)benzoic acid] | 605 nM | > 10000 nM
15 | Cc1cc([C@@H](C)Nc2ccccc2C(=O)O)c2nc(N3CC4CC(C3)N4c3ccc(C#N)cc3)c(C)c(=O)n2c1 [Example 11-135, 2-(((1R)-1-(2-(6-(4-cyanophenyl)-3,6-diazabicyclo[3.1.1]heptan-3-yl)-3,7-dimethyl-4-oxo-4H-pyrido[1,2-a]pyrimidin-9-yl)ethyl)amino)benzoic acid] | 169 nM | > 10000 nM
16 | Cc1cc([C@@H](C)Nc2ccccc2C(=O)O)c2nc(N3CC(F)(F)C(F)(F)C3)c(C#N)c(=O)n2c1 [Example 11-136, (R)-2-((1-(3-cyano-7-methyl-4-oxo-2-(3,3,4,4-tetrafluoropyrrolidin-1-yl)-4H-pyrido[1,2-a]pyrimidin-9-yl)ethyl)amino)benzoic acid] | 162 nM | > 10000 nM
17 | Cc1cc([C@@H](C)Nc2ccccc2C(=O)O)c2nc(N3Cc4nccnc4C3)c(C#N)c(=O)n2c1 [Example 11-137, (R)-2-((1-(3-cyano-2-(5,7-dihydro-6H-pyrrolo[3,4-b]pyrazin-6-yl)-7-methyl-4-oxo-4H-pyrido[1,2-a]pyrimidin-9-yl)ethyl)amino)benzoic acid] | 688 nM | > 10000 nM
18 | Cc1cc([C@@H](C)Nc2ccccc2C(=O)O)c2nc(N3Cc4nccnc4C3)c(C)c(=O)n2c1 [Example 11-138, (R)-2-((1-(2-(5,7-dihydro-6H-pyrrolo[3,4-b]pyrazin-6-yl)-3,7-dimethyl-4-oxo-4H-pyrido[1,2-a]pyrimidin-9-yl)ethyl)amino)benzoic acid] | 392 nM | > 10000 nM
19 | Cc1cc([C@@H](C)Nc2ccc(Cl)nc2C(=O)O)c2nc(N3Cc4nccnc4C3)c(C)c(=O)n2c1 [Example 11-139, (R)-6-chloro-3-((1-(2-(5,7-dihydro-6H-pyrrolo[3,4-b]pyrazin-6-yl)-3,7-dimethyl-4-oxo-4H-pyrido[1,2-a]pyrimidin-9-yl)ethyl)amino)picolinic acid] | 272 nM | > 10000 nM
20 | Cc1cc([C@@H](C)Nc2ccccc2C(=O)O)c2nc(N3CCC(F)(F)C3)c(C)c(=O)n2c1 [Example 11-140, (R)-2-((1-(2-(3,3-difluoropyrrolidin-1-yl)-3,7-dimethyl-4-oxo-4H-pyrido[1,2-a]pyrimidin-9-yl)ethyl)amino)benzoic acid] | 119 nM | > 10000 nM
21 | Cc1cc([C@@H](C)Nc2ccncc2C(=O)O)c2nc(N3CCC(F)(F)CC3)c(C#N)c(=O)n2c1 [Example 11-142, (R)-4-((1-(3-cyano-2-(4,4-difluoropiperidin-1-yl)-7-methyl-4-oxo-4H-pyrido[1,2-a]pyrimidin-9-yl)ethyl)amino)nicotinic acid] | > 10000 nM | > 10000 nM
22 | Cc1cc([C@@H](C)Nc2ccc(Cl)nc2C(=O)O)c2nc(N3CC4C(C3)C4(F)F)c(C#N)c(=O)n2c1 (stereo partly drawn) [Example 11-143, 6-chloro-3-(((1R)-1-(3-cyano-2-(6,6-difluoro-3-azabicyclo[3.1.0]hexan-3-yl)-7-methyl-4-oxo-4H-pyrido[1,2-a]pyrimidin-9-yl)ethyl)amino)picolinic acid] | 795 nM | > 10000 nM
23 | Cc1cc([C@@H](C)Nc2ccnnc2)c2nc(N3CCC(F)(F)CC3)c(C#N)c(=O)n2c1 [Example 11-145, (R)-2-(4,4-difluoropiperidin-1-yl)-7-methyl-4-oxo-9-(1-(pyridazin-4-ylamino)ethyl)-4H-pyrido[1,2-a]pyrimidine-3-carbonitrile] | > 10000 nM | > 10000 nM
24 | Cc1cc([C@@H](C)Nc2ccnnc2C(=O)O)c2nc(N3CCC(F)(F)CC3)c(C#N)c(=O)n2c1 [Example 11-146, (R)-4-((1-(3-cyano-2-(4,4-difluoropiperidin-1-yl)-7-methyl-4-oxo-4H-pyrido[1,2-a]pyrimidin-9-yl)ethyl)amino)pyridazine-3-carboxylic acid] | > 10000 nM | > 10000 nM

Source: patent US20260078120A1, “SUBSTITUTED PYRIDOPYRIMIDINONES” (MIRATI THERAPEUTICS, INC., priority 2022, published 2026)
